Where no end group is shown, it is not given here.
What was measured:
interferon-beta (IFN-b) = test: polyIC-induced IFN-b expression in MLE-12 cells, ELISA; format: cell-based, mouse; settings: 5 mg/ml polyIC, 16 hours; for expression level of IFN-b: vs control group treated only with polyIC
Protocol: Specifically, polyinosinic:polycytidylic acid (polyIC), which is a synthetic ribonucleic acid known to be associated with viral infection among the PAMPs and promotes the production of interferon and is analogous to an RNA virus gene, was used to induce a viral infection response. First, a serum-free cell culture medium containing 5 mg/ml polyIC and MQP-15, MQP-23, MQP-31, MQP-37, MQP-Y9 or MQP-T234 was treated with 1×10^5 cells of a mouse lung epithelial cell line (MLE-12) for 16 hours. Then, the supernatant was obtained and the expression level of interferon-beta (IFN-b) was checked by enzyme-linked immunosorbent assay (ELISA).
(§1) Specifically, LPS and ATP were used to induce an inflammasome response caused by bacterial infection, and polyIC was used to induce an inflammatory response caused by viral infection. First, 1 mg/ml LPS and 5 mM or 1 mM novel alanine-substituted peptide were mixed in a serum-free cell culture medium, followed by treatment with 1×10^5 cells of IC21. Thereafter, 5 mM ATP and 5 mM or 1 mM novel alanine-substituted peptide were mixed in a serum-free cell culture medium and treated for 30 minutes. Then, the supernatant was obtained and the expression level of IL-1b was checked by ELISA. Also, 5 mg/ml polyIC and 25 mM or 2 mM novel alanine-substituted peptide were mixed in a serum-free cell culture medium, followed by treatment with 1×10^5 cells of MLE-12 for 16 hours. Thereafter, the supernatant was obtained and the expression level of IFN-b was checked by ELISA.
as §1, with “2” for “5 mM or 1”, “amino acid-substituted” for “alanine-substituted”, “and” for “and 25 mM or”
Specifically, polyIC was used to induce a viral infection response. First, a serum-free cell culture medium containing 5 mg/ml polyIC and MQP-37, MQP-37A6, MQP-37D6W, MQP-37D6Y, MQP-37D6H, MQP-37D6K, MQP-37D6R or MQP-37D6V was treated with 1×10^5 cells of MLE-12 for 16 hours. Then, the supernatant was obtained and the expression level of IFN-b was checked by ELISA.

IL-1b = test: LPS/ATP-induced IL-1b expression (inflammasome response) in IC21, ELISA; format: cell-based, mouse; settings: 1 mg/ml LPS, 5 mM ATP 30 minutes, 2 mM peptide
Protocol: as §1
as §1, with “2” for “5 mM or 1”, “amino acid-substituted” for “alanine-substituted”, “and” for “and 25 mM or”
Specifically, LPS was used to induce an inflammatory response caused by bacterial infection. First, MQP-37 or MQP-37A6 was added to a serum-free cell culture medium containing 0.1 mg/ml LPS, followed by treatment with 1×10^5 cells of IC21 for 6 hours. Then, the supernatant was obtained and the expression level of IL-6 was checked by ELISA. Also, the Western blot was performed and the phosphorylation of NF-κB was checked to identify the mechanism of immune activation response. Thereafter, LPS and ATP were used to induce an inflammasome response caused by bacterial infection, LPS and ATP were used. First, 1 mg/ml LPS and L- or D-MQP-37 and MQP-37A6 were mixed in a serum-free cell culture medium and treated with 1×10^5 cells of IC21. Then, 5 mM ATP and MQP-37 or MQP-37A6 were mixed in a serum-free cell culture medium and treated for 30 minutes. Thereafter, the supernatant was obtained and the expression level of IL-1b was checked by ELISA.

MAVS proteins = target: T1, MAVS proteins (Mus musculus, UniProt Q8VCF0); test: MAVS aggregation induced by LPS and nigericin, Western blot of isolated mitochondria; format: cell-based; settings: 5 mM peptide; IC21; 1 mg/ml LPS 4 hours then 5 mM nigericin 1 hour; vs control group treated with endotoxin and nigericin
T1 construct: mitochondria in IC21 were isolated with a hypotonic buffer and centrifugation; endogenous in cells; host or cells: IC21 mouse peritoneal macrophage cell line
T1 sequence (Q8VCF0 1-503): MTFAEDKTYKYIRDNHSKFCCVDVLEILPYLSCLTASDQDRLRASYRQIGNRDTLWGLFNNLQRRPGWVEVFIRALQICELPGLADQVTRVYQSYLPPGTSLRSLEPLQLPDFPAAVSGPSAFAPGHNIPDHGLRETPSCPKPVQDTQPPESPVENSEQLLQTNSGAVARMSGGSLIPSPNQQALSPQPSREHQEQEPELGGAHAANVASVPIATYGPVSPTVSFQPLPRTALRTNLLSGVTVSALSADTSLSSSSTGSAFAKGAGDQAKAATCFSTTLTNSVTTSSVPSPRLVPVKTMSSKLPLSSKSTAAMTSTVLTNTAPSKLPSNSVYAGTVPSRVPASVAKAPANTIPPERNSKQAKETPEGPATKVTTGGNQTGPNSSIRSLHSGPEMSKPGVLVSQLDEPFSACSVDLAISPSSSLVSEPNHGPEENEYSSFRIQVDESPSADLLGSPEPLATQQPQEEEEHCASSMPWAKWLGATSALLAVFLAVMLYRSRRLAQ
Protocol: Specifically, the aggregation of MAVS proteins was induced by stimulation with pathogen-associated molecular patterns (PAMPs), and endotoxin (lipopolysaccharide (LPS)) and nigericin were used as the PAMPs. First, 5 mM MQP-15, MQP-23, MQP-31 or MQP-37 was added to a serum-free cell culture medium containing 1 mg/ml LPS, followed by treatment with 1×10^5 cells of a mouse peritoneal macrophage cell line (IC21) for 4 hours. Then, 5 mM MQP-15, MQP-23, MQP-31 or MQP-37 was added to a serum-free cell culture medium containing 5 mM nigericin, followed by treatment with IC21 for additional 1 hour. Thereafter, mitochondria in IC21 were isolated with a hypotonic buffer and centrifugation. Then, in order to check the result of MAVS aggregation by the Western blot, a sample was prepared using a semi-denaturing detergent in the isolated mitochondria and electrophoresis was performed. After the electrophoretically isolated mitochondrial protein was transferred to a polyvinylidene difluoride (PVDF) membrane, a primary antibody recognizing the MAVS proteins and a secondary antibody recognizing the primary antibody were additionally treated. Thereafter, the aggregation of MAVS proteins was checked by inducing a chemiluminescence reaction of the secondary antibody.

MLE-12 = test: Cytotoxicity at maximum concentration (Example 13); format: cell-based, mouse; settings: at the maximum concentration in the experiment; FIG. 13B-F
NF-κB = test: LPS-induced phosphorylation of NF-kB in IC21, Western blot; format: cell-based, mouse; settings: 5 mM peptide, 10 ng/ml endotoxin, 6 hours, vs control treated with LPS only
Description: Specifically, LPS was used to induce an immune activation response caused by bacterial infection, and the phosphorylation of nuclear factor kappa-light-chain-enhancer of activated B cells (NF-kB) was checked to identify the mechanism of the immune activation response. […] Thereafter, the cells were washed with a PBS solution and then lysed with a RIPA buffer, and the supernatant was separated. In order to measure the change in the phosphorylation amount of NF-κB protein with the separated supernatant, the Western blot was performed as in Example 2.

[1] = test system: interleukin-1beta (IL-1b); test: IL-1b expression induced by LPS, OMV or LPS and nigericin in IC21, ELISA; format: cell-based, mouse; settings: 1 mg/ml LPS 4 hours, 5 mM nigericin 1 hour, FIG. 5B-D
Protocol: Specifically, LPS (lipopolysaccharide) and Gram-negative bacteria-derived outer membrane vesicle (OMV) were used as endotoxins to induce the inflammasome response caused by bacterial infection. First, 5 mM MQP-15, MQP-23, MQP-31 or MQP-37 was added to a serum-free cell culture medium containing 0.1 mg/ml LPS or OMV, followed by treatment with 1×10^5 cells of IC21 for 6 hours. Also, MQP-37 or MQP-Y9 was added to a serum-free cell culture medium containing 1 mg/ml LPS and 5 mM nigericin, followed by treatment for 5 hours (LPS treatment-4 hours; nigericin treatment-1 hour). Then, the supernatant was obtained and the expression level of interleukin-1beta (IL-1b) was checked by ELISA, and the cells were lysed and subjected to SDS-PAGE, and the inflammasome factors were analyzed by the Western blot.

IC21 = test: XTT cytotoxicity test; format: cell-based, mouse; settings: at a concentration of 10 mM; FIGS. 4-B and 4-C
Protocol: Specifically, in order to check the cytotoxicity of the peptides, the XTT test method for measuring the activity of mitochondria in cells was used. First, […] 16 hours, followed by XTT assay for 1 hour to measure the amount of water-soluble formazan produced by reduction by dehydrogenase in the mitochondria.

interleukin-6 (IL-6) = test: LPS-induced IL-6 expression in IC21, ELISA; format: cell-based, mouse; settings: 0.1 mg/ml LPS, 6 hours
Protocol: Specifically, LPS was used to induce an inflammatory response caused by bacterial infection. First, MQP-15, MQP-23, MQP-31, MQP-37 or MQP-Y9 was added to a serum-free cell culture medium containing 0.1 mg/ml LPS, followed by treatment with 1×10^5 cells of IC21 for 6 hours. Then, the supernatant was obtained and the expression levels of interleukin-6 (IL-6) and a tumor necrosis factor-alpha (TNF-a) were checked by ELISA.

## MQP-37D6H: MQP-37 whose sixth amino acid (aspartic acid) is substituted with histidine (SLVLAHARW; MQP-37D6H)
interferon-beta (IFN-b); FIGS. 13A-C and 13A-D
  inflammatory response caused by viral infection (IFN-b): inhibited the inflammatory response caused by viral infection in a concentration-dependent manner
IL-1b; FIG. 10A-B
  inflammasome response caused by bacterial infection (IL-1b), sixth amino acid of MQP-37 substituted: effectively

## MQP-31: novel peptide complementary to a MAVS domain sequence (hydropathic complementarity); sequence not tied to the code in the text (DGTECR; MQP-31)
interferon-beta (IFN-b)
  expression level of IFN-b: decreased
MAVS proteins
  aggregation of MAVS proteins: decreased

## MQP-T234: novel anti-inflammatory peptide prepared in Example 1 (KVGDRARWGSRS; MQP-T234)
interferon-beta (IFN-b)
  expression level of IFN-b: decreased

## SLVLAYARW [MQP-37D6Y]
MLE-12
  cytotoxicity: did not show cytotoxicity

## MQP-23: novel peptide complementary to a MAVS domain sequence (hydropathic complementarity); sequence not tied to the code in the text (LQHLEDGM; MQP-23)
interferon-beta (IFN-b)
  expression level of IFN-b: decreased
MAVS proteins
  aggregation of MAVS proteins: decreased

## MQP-37D6W: MQP-37 whose sixth amino acid (aspartic acid) is substituted with tryptophan (SLVLAWARW; MQP-37D6W)
interferon-beta (IFN-b); 2 mM peptide, FIG. 10B-C
  inflammatory response caused by viral infection (IFN-b), sixth amino acid of MQP-37 substituted, compared to the original peptide: effectively inhibited even at a low peptide concentration
interferon-beta (IFN-b); concentration-dependent, FIGS. 13A-A and 13A-B
  inhibiting the inflammatory response caused by viral infection (IFN-b), compared to MQP-37 and MQP-37A6: outstanding effect

## KRLLFWIFIK [MQP-Y9]
NF-κB
  phosphorylation amount of NF-κB: significantly decreased
[1]
  production of IL-1b after LPS and nigericin treatment: inhibited in an MQP-Y9 concentration-dependent manner
interferon-beta (IFN-b)
  expression level of IFN-b with various concentrations of peptide: decreased in a concentration-dependent manner
  expression level of IFN-b: decreased
IC21
  cytotoxicity (XTT): did not exhibit any cytotoxicity
interleukin-6 (IL-6)
  expression level of IL-6 after LPS treatment with various concentrations of peptide: decreased in a concentration-dependent manner

## SLVLADARW [MQP-37]
IC21
  cytotoxicity (XTT): did not exhibit any cytotoxicity

## MQP-37A1: prepared by substituting the first amino acid of MQP-37A6 with alanine (ALVLADARW; MQP-37A1)
IL-1b; FIG. 10A-A
  inflammasome response caused by bacterial infection (IL-1b), first amino acid substituted: most effectively

## MQP-15: novel peptide complementary to a MAVS domain sequence (hydropathic complementarity); sequence not tied to the code in the text (LKSLKTLH; MQP-15)
interferon-beta (IFN-b)
  expression level of IFN-b: decreased
MAVS proteins
  aggregation of MAVS proteins: decreased
